Assay results from patent US20240318160A1 (Wisconsin Alumni Research Foundation, priority 2023, published 2024).

Legend:
Type in all cases: biochemical
[1] = test system: Joinvillea ascendens JaPAL variant F140H/S112I (JaPAL^F140H_S112I), SEQ ID NO: 145; assay: TAL and PAL enzyme kinetics; conditions: TAL assay (L-Tyr), pH 8.5, 30° C.
Procedure: To test this hypothesis further, the reciprocal S112I mutation was introduced into the JaPAL^F140H single mutant to generate the JaPAL^F140H_S112I double mutant. For comparison, a single mutant in which the residue corresponding to Ser112 was converted to Ile (i.e., JaPAL^S112I) was generated as well.
(§1) A mixture containing 100 mM Tris-HCl (pH 8.5), 1% glycerol, and purified enzyme in a total volume of 50 μl was preincubated for 3 min at 30° C. […] The reactions were terminated by addition of 6N acetic acid (10 μl).
(§2) The kinetic parameters of the recombinant enzymes were determined using HPLC. Reaction mixtures containing 100 mM Tris-HCl (pH 8.5), 1% glycerol, and purified enzyme (0.15 μg for PAL assay and 1 μg for TAL assay) in a 50 μl total volume were preincubated for 3 min at 30° C. […] After 10 min and 20 min incubations for PAL and TAL assay, respectively, at 30° C., the reaction was terminated by addition of 6N acetic acid (10 μl). […] The products were quantified using calibration curves generated using authentic standards. Non-linear hyperbolic regression analyses were conducted using the Excel Solver tool to calculate Km and Vmax values.

[2] = test system: wild-type PTAL enzymes (SbPTAL, BdPTAL, SaPTAL-a, SaPTAL-b, EmoPTAL, JaPTAL); assay: TAL enzyme kinetics, group of enzymes; conditions: TAL activity (Tyr), range over PTAL enzymes; read-out: apparent Km
Procedure: as §2

[3] = test system: PAL^F140H mutants (JaPAL^F140H, EmoPAL^F134H, BdPAL^F137H, SbPAL^F135H); assay: TAL and PAL enzyme kinetics, group of enzymes; conditions: TAL activity, range over mutants
Procedure: as §2

[4] = test system: Ecdeiocolea monostachya EmoPAL variant F134H (EmoPAL^F134H); assay: TAL and PAL enzyme kinetics; conditions: TAL assay (L-Tyr), pH 8.5, 30° C.
Procedure: as §1, §2

[5] = test system: Joinvillea ascendens JaPTAL, wild type, SEQ ID NO: 27; assay: TAL and PAL enzyme kinetics; conditions: TAL assay (L-Tyr), pH 8.5, 30° C.
Procedure: as §1, §2

[6] = test system: Ecdeiocolea monostachya EmoPTAL variant H127F (EmoPTAL^H127F); assay: TAL and PAL enzyme kinetics; conditions: TAL assay (L-Tyr), pH 8.5, 30° C.
Procedure: as §1, §2

[7] = molecular target: Arabidopsis thaliana AtPAL1 variant F144H (AtPAL1^F144H), SEQ ID NO: 261 (Arabidopsis thaliana, UniProt P35510, F144H); assay: TAL and PAL enzyme kinetics; conditions: TAL assay (L-Tyr), pH 8.5, 30° C.
Procedure: as §1, §2

[8] = test system: Streptochaeta angustifolia SaPTAL-b variant H126F (SaPTAL-b^H126F); assay: TAL and PAL enzyme kinetics; conditions: TAL assay (L-Tyr), pH 8.5, 30° C.
Procedure: as §1, §2

[9] = test system: Sorghum bicolor SbPAL variant F135H (SbPAL^F135H); assay: TAL and PAL enzyme kinetics; conditions: TAL assay (L-Tyr), pH 8.5, 30° C.
Procedure: as §1, §2

[10] = test system: Streptochaeta angustifolia SaPTAL-a variant H118F (SaPTAL-a^H118F); assay: TAL and PAL enzyme kinetics; conditions: TAL assay (L-Tyr), pH 8.5, 30° C.
Procedure: as §1, §2

[11] = test system: Joinvillea ascendens JaPAL^F140H_MUT8 variant L138I; assay: TAL and PAL enzyme kinetics; conditions: TAL assay (L-Tyr), pH 8.5, 30° C.
Procedure: (§3) To determine which of the 8 circle residues are essential in the conversion of PAL enzymes to PTAL enzymes (FIG. 3C), we mutated, one by one, each one of these 8 residues back to the PAL type in JaPAL^F140H_MUT8 and determined their effects on catalytic efficiency.
as §1, §2

[12] = test system: Joinvillea ascendens JaPAL^F140H_MUT8 variant G121A; assay: TAL and PAL enzyme kinetics; conditions: TAL assay (L-Tyr), pH 8.5, 30° C.
Procedure: as §3, §1, §2

[13] = test system: Joinvillea ascendens JaPAL^F140H_MUT8 variant A448S; assay: TAL and PAL enzyme kinetics; conditions: TAL assay (L-Tyr), pH 8.5, 30° C.
Procedure: as §3, §1, §2

[14] = test system: Joinvillea ascendens JaPAL^F140H_MUT8 variant S267A; assay: TAL and PAL enzyme kinetics; conditions: TAL assay (L-Tyr), pH 8.5, 30° C.
Procedure: as §3, §1, §2

[15] = test system: Joinvillea ascendens JaPAL^F140H_MUT8 variant T444P; assay: TAL and PAL enzyme kinetics; conditions: TAL assay (L-Tyr), pH 8.5, 30° C.
Procedure: as §3, §1, §2

[16] = test system: Joinvillea ascendens JaPAL^F140H_MUT8 variant V500I; assay: TAL and PAL enzyme kinetics; conditions: TAL assay (L-Tyr), pH 8.5, 30° C.
Procedure: as §3, §1, §2

[17] = test system: Joinvillea ascendens JaPAL^F140H_MUT8 variant I122S (in Table 3; I112S in text); assay: TAL and PAL enzyme kinetics; conditions: TAL assay (L-Tyr), pH 8.5, 30° C.
Procedure: as §3, §1, §2

[18] = test system: Joinvillea ascendens JaPAL^F140H_MUT8 variant I102V; assay: TAL and PAL enzyme kinetics; conditions: TAL assay (L-Tyr), pH 8.5, 30° C.
Procedure: as §3, §1, §2

[19] = test system: PTAL^H140F mutants (SbPTAL^H123F, BdPTAL^H123F, SaPTAL-a^H118F, SaPTAL-b^H126F, EmoPTAL^H127F, JaPTAL^H125F); assay: TAL and PAL enzyme kinetics, group of enzymes; conditions: TAL activity, range over mutants
Excerpt: To experimentally test the role of His 140 in the acquisition of TAL activity, we next conducted site-directed mutagenesis on the PAL and PTAL enzymes of grasses and non-grass graminids characterized above and analyzed their effects on TAL activity. For the PAL enzymes, the residue corresponding to Phe 140 was converted to His to generate JaPAL^F140H EmoPAL^F134H, BdPAL^F137H, and SbPAL^F135H. […] For the PTAL enzymes, the residue corresponding to His 140 was converted to Phe to generate SbPTAL^H123F, BdPTAL^H123F, SaPTAL-a^H118F, SaPTAL-b^H126F, EmoPTAL^H127F, and JaPTAL^H125F. […] Thus, unlike in the bacterial TAL enzyme (Watts et al., 2006), other residues besides the His 140 are likely important for the acquisition of strong TAL activity in the PTAL enzymes of grasses and closely-related non-grass graminids.
The kinetic parameters of the recombinant enzymes were determined using HPLC. Reaction mixtures containing 100 mM Tris-HCl (pH 8.5), 1% glycerol, and purified enzyme (0.15 μg for PAL assay and 1 μg for TAL assay) in a 50 μl total volume were preincubated for 3 min at 30° C. PAL and TAL reactions were started by addition of 50 μl substrate solution prepared with 0-4 mM L-Phe and 0-2 mM L-Tyr. After 10 min and 20 min incubations for PAL and TAL assay, respectively, at 30° C., the reaction was terminated by addition of 6N acetic acid (10 μl). […] The products were quantified using calibration curves generated using authentic standards. Non-linear hyperbolic regression analyses were conducted using the Excel Solver tool to calculate Km and Vmax values.

Chain of Arabidopsis thaliana AtPAL1 variant F144H (AtPAL1^F144H), SEQ ID NO: 261 (P35510 whole entry F144H): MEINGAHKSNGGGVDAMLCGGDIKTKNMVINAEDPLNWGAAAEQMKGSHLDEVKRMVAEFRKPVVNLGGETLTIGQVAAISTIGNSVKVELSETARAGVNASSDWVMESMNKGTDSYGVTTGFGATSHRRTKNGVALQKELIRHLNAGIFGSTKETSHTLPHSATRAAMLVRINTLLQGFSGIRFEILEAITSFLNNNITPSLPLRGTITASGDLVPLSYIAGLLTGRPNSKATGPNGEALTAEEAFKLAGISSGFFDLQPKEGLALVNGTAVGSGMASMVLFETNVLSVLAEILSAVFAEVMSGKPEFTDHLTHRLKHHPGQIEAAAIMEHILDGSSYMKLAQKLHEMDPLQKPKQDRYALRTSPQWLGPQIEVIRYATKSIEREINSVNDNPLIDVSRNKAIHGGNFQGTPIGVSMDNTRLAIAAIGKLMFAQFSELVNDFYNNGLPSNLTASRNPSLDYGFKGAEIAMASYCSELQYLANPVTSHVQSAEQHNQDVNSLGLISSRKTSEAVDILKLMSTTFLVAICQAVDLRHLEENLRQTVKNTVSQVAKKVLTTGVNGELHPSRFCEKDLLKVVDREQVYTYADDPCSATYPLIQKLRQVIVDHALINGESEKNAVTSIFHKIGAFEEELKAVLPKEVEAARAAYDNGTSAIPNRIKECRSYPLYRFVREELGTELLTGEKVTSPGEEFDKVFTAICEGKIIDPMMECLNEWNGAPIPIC

N[C@@H](Cc1ccc(O)cc1)C(=O)O [L-Tyr, tyrosine]
Km [1]: 17.2 ± 0.7 µM
Km [2]: 11 to 19 µM
Km [3]: 222 to 450 µM
Km [4]: 450 ± 14.2 µM
Km [5]: 11 ± 0.4 µM
Km [6]: 614 ± 18.1 µM
kcat [7]: 0.01 ± 0.00 s⁻¹
Km [8]: 724 ± 54.8 µM
Km [9]: 413 ± 6.5 µM
Km [10]: 531 ± 13.2 µM
Km [11]: 18.3 ± 0.6 µM
Km [12]: 12.6 ± 0.6 µM
Km [13]: 23.3 ± 1 µM
Km [14]: 43.1 ± 1.5 µM
Km [15]: 25.3 ± 2.4 µM
Km [16]: 25.1 ± 3.2 µM
Km [17]: 282 ± 29 µM
Km [18]: 24.5 ± 1.4 µM
Km [19]: 531 to 765 µM
